Assay results taken from patent US20060177448A1, “Inhibiting HER2 shedding with matrix metalloprotease antagonists” (Genentech, Inc., priority 2005, published 2006).

Columns and labels:
[1] = system: SKBR-3 cells; assay: HER2 ECD ELISA of conditioned media (HER2 shedding), SKBR-3 cells; type: cell-based, human
Method: BT 474, MCF-7, and SKBR-3 cells were maintained in high-glucose DMEM:Ham's F12 (50:50) supplemented with 10% heat-inactivated FBS and 2 mM L-Glutamine. […] Cell lines were maintained at 37° C. in a humidified incubator supplied with 5% CO2. BT 474 and SKBR-3 cells were transiently transfected with constructs as described by electroporation using kit V according to the manufacturer's instructions (AMAXA™).
Serum was diluted 1:50 using assay buffer (PBS/0.5% BSA, 0.05% TWEEN® 20/10 ppm PROCLIN® 300/0.2% BGG/0.25% CHAPS/0.15 M NaCl/5mM EDTA (pH 7.4) followed by additional 1:2 serial dilutions. Shed HER2 was captured using a goat anti-HER2 polyclonal antibody (Genentech) onto NUNC® Maxisorp plates and detected using a biotin-conjugated rabbit anti-HER2 polyclonal antibody (Genentech) followed by a AMDEX™-strepavidin-horseradish peroxidase antibody (Amersham Pharmacia Biotech) following a procedure described previously (Sias et al., J. Immunol. Meth. 109:219-27 (1990)). For cell culture experiments, cells were treated as indicated and conditioned media was collected and diluted in assay buffer serially 1:2. The concentration of shed HER2 in serum or in conditioned media was determined from a four-parameter fit of a standard curve using purified recombinant HER2 ECD protein (Genentech) as a standard.
The pSIREN shRNA construct(s) or vector alone were transiently transfected into SKBR-3 and BT 474 cells using AMAXA™ kit V following manufacturer's recommendations. After 48 hours, conditioned media was collected and assayed for shed HER2 by HER2 ELISA and the cells were lysed directly on the plate using 2×Sample buffer.

[2] = system: Fo5 tumors; assay: GM6001 injections in FVB mice with Fo5 xenograft tumors (serum HER2 ECD ELISA, p95 HER2 Western blot); type: in vivo, mouse; conditions: 100 mg/kg intraperitoneally daily for 3 days, day four
From the text: The Fo5 and f2: 1282 lines have been previously described (Finkle et al., Clin. Cancer Res. 10: 2499-2511 (2004)). These lines were derived from primary tumors from a MMTV HER2 transgenic mouse and passaged in the mammary fat pad of FVB mice.
Fo5 tumors were transplanted into FVB mice and allowed to grow to an average size of 400-600 mm^3 prior to initiating the study. GM6001 (3-[N-hydroxycarbomyl]-[2R]-isobutylpropionyl-L-tryptophan methylamide) was obtained from Calbiochem and reconstituted in a slurry of 4% carboxymethylcellulose/0.9% PBS and administered daily by intraperitoneal injection at 100 mg/kg body weight for 3 days. […] Tumors size was measured at day 0 and at day 4. […]
Serun from mice harboring Fo5 or f2: 1282 xenograft tumors was collected by cardiac puncture and HER2 ECD levels detected using a previously described HER2 ELISA (Finkle et al. Clin. Cancer Res. 10: 2499-2511 (2004)). […] The concentration of shed HER2 in serum or in conditioned media was determined from a four-parameter fit of a standard curve using purified recombinant HER2 ECD protein (Genentech) as a standard.
Fo5 and f2:1282 tumors were resuspended in lysis buffer with protease inhibitors and homogenized using a POLYTRON TISSUEMIZER™ (PT2 100) on ice. Tumor lysates were cleared of insoluble material by centrifugation and total protein levels were determined using a BCA protein assay kit. […]

[3] = system: breast carcinoma cell lines; conditions: cited from earlier work

Compound: CNC(=O)[C@H](Cc1c[nH]c2ccccc12)NC(=O)[C@@H](CC(=O)NO)CC(C)C [GM6001, 3-[N-hydroxycarbomyl]-[2R]-isobutylpropionyl-L-tryptophan methylamide]
- inhibition of HER2 shedding (HER2 ECD ELISA) ([1]; dose response): dose dependently inhibited HER2 shedding
- amount of p95 HER2 in tumor lysates compared to control animals [2]: significant reduction
- serum HER2 ECD levels ([2]; versus vehicle): greater reduction

Compound: CNC(=O)[C@H](Cc1ccccc1)NC(=O)[C@H](CC(C)C)[C@H](CSc1cccs1)C(=O)NO [BB-94]
- inhibition of HER2 ECD shedding [3]: inhibited HER2 ECD shedding

Compound: Timp-1: naturally occurring peptides that regulate metalloprotease activity
- HER2 ECD levels in conditioned media ([1]; 1 μg/ml): reduced HER2 ECD levels
